Measurements: US20240398828A1, “HETERO-ATOM CONTAINING COMPOUNDS AND USES THEREOF” (Kumquat Biosciences Inc., priority 2021, published 2024)

What was measured:
PTPN1 (i.e., PTP1B) = molecular target: T1, PTPN1 (i.e., PTP1B) (Homo sapiens, UniProt P18031); assay: Phosphatase activity assay (DiFMUP substrate), PTP1B; assay type: biochemical; conditions: compounds binned ≤1 uM or >1 uM
T1 sequence (P18031 1-435): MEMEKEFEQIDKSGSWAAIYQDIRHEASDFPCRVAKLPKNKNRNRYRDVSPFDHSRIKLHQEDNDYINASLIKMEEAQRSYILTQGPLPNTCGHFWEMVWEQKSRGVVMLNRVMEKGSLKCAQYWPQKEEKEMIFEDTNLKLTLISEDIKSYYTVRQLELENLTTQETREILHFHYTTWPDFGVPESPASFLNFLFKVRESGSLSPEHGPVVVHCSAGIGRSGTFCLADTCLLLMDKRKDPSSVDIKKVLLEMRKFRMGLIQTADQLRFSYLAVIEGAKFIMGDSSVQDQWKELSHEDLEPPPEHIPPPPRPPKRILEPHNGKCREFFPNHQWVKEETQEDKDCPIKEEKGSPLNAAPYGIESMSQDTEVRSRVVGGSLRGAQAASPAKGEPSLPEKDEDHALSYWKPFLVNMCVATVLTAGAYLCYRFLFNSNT
Procedure, shortened: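 First, serially diluted inhibitor is mixed about 2 minutes with enzyme in pH 7.5 HEPES/NaCl/EDTA/DTT/Tween-20 buffer. Next, DiFMUP is added at the enzyme's Km, approximately 45 μM for PTPN2. Finally, DiFMU appearance is read continuously at room temperature and rates are fitted for IC50.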

PTPN2 (i.e., TC-PTP) = molecular target: T2, PTPN2 (i.e., TC-PTP) (Homo sapiens, UniProt P17706); assay: Phosphatase activity assay (DiFMUP substrate), PTPN2; assay type: biochemical; conditions: compounds binned ≤1 uM or >1 uM
T2 sequence (P17706 1-415): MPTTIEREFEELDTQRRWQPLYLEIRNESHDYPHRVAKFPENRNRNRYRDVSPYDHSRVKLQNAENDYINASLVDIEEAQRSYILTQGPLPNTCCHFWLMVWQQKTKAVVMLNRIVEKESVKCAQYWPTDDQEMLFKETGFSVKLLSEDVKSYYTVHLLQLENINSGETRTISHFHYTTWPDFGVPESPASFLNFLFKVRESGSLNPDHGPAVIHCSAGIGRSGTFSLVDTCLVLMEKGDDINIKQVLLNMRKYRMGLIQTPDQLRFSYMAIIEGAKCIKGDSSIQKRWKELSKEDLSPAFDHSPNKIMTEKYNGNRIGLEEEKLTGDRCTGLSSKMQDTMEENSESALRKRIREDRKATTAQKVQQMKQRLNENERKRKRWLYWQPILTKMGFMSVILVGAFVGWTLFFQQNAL
Procedure, shortened: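 RT, HEPES pH 7.5 buffer with DTT/Tween-20. 10-point inhibitor series premixed ~2 min with enzyme (PTPN2 0.025 ng/ul). Start with DiFMUP at enzyme Km (~45 μM for PTPN2). Read DiFMU ex360/em450 continuously 15–30 min; initial rate vs concentration, 4-parameter fit → IC50.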

| SMILES | IC50 (PTPN1 (i.e., PTP1B)) [nM] | IC50 (PTPN2 (i.e., TC-PTP)) [nM] |
| --- | --- | --- |
| Cn1cc(-c2ccc(O)c(N3CC(=O)NS3(=O)=O)c2F)c(C(F)(F)F)n1 [Compound 192, 5-(2-fluoro-6-hydroxy-3-(1-methyl-3-(trifluoromethyl)-1H-pyrazol-4-yl)phenyl)-1,2,5-thiadiazolidin-3-one 1,1-dioxide] | ≤ 1000 | > 1000 |
| CC(C)CCn1cc(-c2ccc(O)c(N3CC(=O)NS3(=O)=O)c2Cl)cn1 [Compound 175, 5-(2-chloro-6-hydroxy-3-(1-isopentyl-1H-pyrazol-4-yl)phenyl)-1,2,5-thiadiazolidin-3-one 1,1-dioxide] | ≤ 1000 | ≤ 1000 |
| O=C1CN(c2c(O)ccc(-c3cnn(S(=O)(=O)C4CC4)c3)c2F)S(=O)(=O)N1 [Compound 342, 5-(3-(1-(cyclopropylsulfonyl)-1H-pyrazol-4-yl)-2-fluoro-6-hydroxyphenyl)-1,2,5-thiadiazolidin-3-one 1,1-dioxide] | ≤ 1000 | ≤ 1000 |
| O=C1CN(c2c(O)ccc(-c3cnn(C4CC4)c3)c2F)S(=O)(=O)N1 [Compound 133, 5-(3-(1-cyclopropyl-1H-pyrazol-4-yl)-2-fluoro-6-hydroxyphenyl)-1,2,5-thiadiazolidin-3-one 1,1-dioxide] | ≤ 1000 | ≤ 1000 |
| O=C1CN(c2c(O)ccc(-c3cc(CCC4CCC4)n[nH]3)c2F)S(=O)(=O)N1 [Compound 339, 5-(3-(3-(2-cyclobutylethyl)-1H-pyrazol-5-yl)-2-fluoro-6-hydroxyphenyl)-1,2,5-thiadiazolidin-3-one 1,1-dioxide] | ≤ 1000 | ≤ 1000 |
| O=C1CN(c2c(O)ccc(-c3cnn(C4CCC(C(F)(F)F)CC4)c3)c2F)S(=O)(=O)N1 (stereo not shown) [Compound 341, 5-(2-fluoro-6-hydroxy-3-(1-(4-(trifluoromethyl)cyclohexyl)-1H-pyrazol-4-yl)phenyl)-1,2,5-thiadiazolidin-3-one 1,1-dioxide] | ≤ 1000 | ≤ 1000 |
| CC(=O)N(C)C1CCC=C(c2ccc(O)c(N3CC(=O)NS3(=O)=O)c2F)C1 (stereo not shown) [Compound 232, N-(3′-(1,1-dioxido-4-oxo-1,2,5-thiadiazolidin-2-yl)-2′-fluoro-4′-hydroxy-2,3,4,5-tetrahydro-[1,1′-biphenyl]-3-yl)-N-methylacetamide] | ≤ 1000 | ≤ 1000 |
| O=C1CN(c2c(O)ccc(-c3c(F)ccc4[nH]ncc34)c2F)S(=O)(=O)N1 [Compound 152, 5-(2-fluoro-3-(5-fluoro-1H-indazol-4-yl)-6-hydroxyphenyl)-1,2,5-thiadiazolidin-3-one 1,1-dioxide] | ≤ 1000 | ≤ 1000 |
| O=C1CN(c2c(O)ccc(-c3cnn(CCC(F)F)c3)c2F)S(=O)(=O)N1 [Compound 510, 5-(3-(1-(3,3-difluoropropyl)-1H-pyrazol-4-yl)-2-fluoro-6-hydroxyphenyl)-1,2,5-thiadiazolidin-3-one 1,1-dioxide] | ≤ 1000 | ≤ 1000 |
| CC(C)n1cnc(-c2ccc(O)c(N3CC(=O)NS3(=O)=O)c2F)c1 [Compound 165, 5-(2-fluoro-6-hydroxy-3-(1-isopropyl-1H-imidazol-4-yl)phenyl)-1,2,5-thiadiazolidin-3-one 1,1-dioxide] | ≤ 1000 | ≤ 1000 |
| CC(C)CCn1cc(-c2ccc(O)c(N3CC(=O)NS3(=O)=O)c2F)nn1 [Compound 219, 5-(2-fluoro-6-hydroxy-3-(1-isopentyl-1H-1,2,3-triazol-4-yl)phenyl)-1,2,5-thiadiazolidin-3-one 1,1-dioxide] | ≤ 1000 | ≤ 1000 |
| O=C1CN(c2c(O)ccc(-c3cn(CC4CCCCC4)cn3)c2F)S(=O)(=O)N1 [Compound 453, 5-(3-(1-(cyclohexylmethyl)-1H-imidazol-4-yl)-2-fluoro-6-hydroxyphenyl)-1,2,5-thiadiazolidin-3-one 1,1-dioxide] | ≤ 1000 | ≤ 1000 |
| Cc1ccccc1-n1cnc(-c2ccc(O)c(N3CC(=O)NS3(=O)=O)c2F)c1 [Compound 418, 5-(2-fluoro-6-hydroxy-3-(1-(o-tolyl)-1H-imidazol-4-yl)phenyl)-1,2,5-thiadiazolidin-3-one 1,1-dioxide] | ≤ 1000 | ≤ 1000 |
| O=C1CN(c2c(O)ccc(-c3ccc4[nH]ncc4c3)c2F)S(=O)(=O)N1 [Compound 114, 5-(2-fluoro-6-hydroxy-3-(1H-indazol-5-yl)phenyl)-1,2,5-thiadiazolidin-3-one 1,1-dioxide] | ≤ 1000 | ≤ 1000 |
| CC(C)CCN1CCCC(c2ccc(O)c(N3CC(=O)NS3(=O)=O)c2F)C1 (stereo not shown) [Compound 198, 5-(2-fluoro-6-hydroxy-3-(1-isopentylpiperidin-3-yl)phenyl)-1,2,5-thiadiazolidin-3-one 1,1-dioxide] | ≤ 1000 | > 1000 |
| O=C1CN(c2c(O)ccc(-c3cnn(C4(C(F)F)CC4)c3)c2F)S(=O)(=O)N1 [Compound 542, 5-(3-(1-(1-(difluoromethyl)cyclopropyl)-1H-pyrazol-4-yl)-2-fluoro-6-hydroxyphenyl)-1,2,5-thiadiazolidin-3-one 1,1-dioxide] | ≤ 1000 | ≤ 1000 |

The remaining lines, values ahead:

| IC50 (PTPN1 (i.e., PTP1B)) [nM] | IC50 (PTPN2 (i.e., TC-PTP)) [nM] | SMILES |
| --- | --- | --- |
| ≤ 1000 | ≤ 1000 | Cn1cc(-c2ccc(O)c(N3CC(=O)NS3(=O)=O)c2F)cc1CCC1CC1 [Compound 392, 5-(3-(5-(2-cyclopropylethyl)-1-methyl-1H-pyrrol-3-yl)-2-fluoro-6-hydroxyphenyl)-1,2,5-thiadiazolidin-3-one 1,1-dioxide] |
| ≤ 1000 | ≤ 1000 | O=C1CN(c2c(O)ccc(-c3cnn(C4CCCCCC4)c3)c2F)S(=O)(=O)N1 [Compound 360, 5-(3-(1-cycloheptyl-1H-pyrazol-4-yl)-2-fluoro-6-hydroxyphenyl)-1,2,5-thiadiazolidin-3-one 1,1-dioxide] |
| ≤ 1000 | ≤ 1000 | Cn1ccc(-c2ccc(O)c(N3CC(=O)NS3(=O)=O)c2F)c1 [Compound 185, 5-(2-fluoro-6-hydroxy-3-(1-methyl-1H-pyrrol-3-yl)phenyl)-1,2,5-thiadiazolidin-3-one 1,1-dioxide] |
| ≤ 1000 | ≤ 1000 | Cc1ncc(-c2ccc(O)c(N3CC(=O)NS3(=O)=O)c2F)[nH]1 [Compound 263, 5-(2-fluoro-6-hydroxy-3-(2-methyl-1H-imidazol-5-yl)phenyl)-1,2,5-thiadiazolidin-3-one 1,1-dioxide] |
| ≤ 1000 | ≤ 1000 | O=C1CN(c2c(O)ccc(-c3cn(C4CC4(F)F)[nH]c3=O)c2F)S(=O)(=O)N1 (stereo not shown) [Compound 500, 5-(3-(1-(2,2-difluorocyclopropyl)-3-oxo-2,3-dihydro-1H-pyrazol-4-yl)-2-fluoro-6-hydroxyphenyl)-1,2,5-thiadiazolidin-3-one 1,1-dioxide] |
| ≤ 1000 | ≤ 1000 | CC(C)CNCc1cc(-c2ccc(O)c(N3CC(=O)NS3(=O)=O)c2F)[nH]n1 [Compound 436, 5-(2-fluoro-6-hydroxy-3-(3-((isobutylamino)methyl)-1H-pyrazol-5-yl)phenyl)-1,2,5-thiadiazolidin-3-one 1,1-dioxide] |
| ≤ 1000 | ≤ 1000 | Cc1noc(C)c1Cn1cc(-c2ccc(O)c(N3CC(=O)NS3(=O)=O)c2F)cn1 [Compound 309, 5-(3-(1-((3,5-dimethylisoxazol-4-yl)methyl)-1H-pyrazol-4-yl)-2-fluoro-6-hydroxyphenyl)-1,2,5-thiadiazolidin-3-one 1,1-dioxide] |
| ≤ 1000 | ≤ 1000 | O=C1CN(c2c(O)ccc(-c3cnn(C4CN(C5CC5)C4)c3)c2F)S(=O)(=O)N1 [Compound 275, 5-(3-(1-(1-cyclopropylazetidin-3-yl)-1H-pyrazol-4-yl)-2-fluoro-6-hydroxyphenyl)-1,2,5-thiadiazolidin-3-one 1,1-dioxide] |
| ≤ 1000 | ≤ 1000 | O=C1CN(c2c(O)ccc(-c3cnn(C4CC4)c3)c2Cl)S(=O)(=O)N1 [Compound 260, 5-(2-chloro-3-(1-cyclopropyl-1H-pyrazol-4-yl)-6-hydroxyphenyl)-1,2,5-thiadiazolidin-3-one 1,1-dioxide] |
| ≤ 1000 | ≤ 1000 | O=C1CN(c2c(O)ccc(-c3cccc(NS(=O)(=O)C4CC4)c3)c2F)S(=O)(=O)N1 [Compound 449, N-(3′-(1,1-dioxido-4-oxo-1,2,5-thiadiazolidin-2-yl)-2′-fluoro-4′-hydroxy-[1,1′-biphenyl]-3-yl)cyclopropanesulfonamide] |
